Test results: patent US20150111852A1, “1-Di(sec-butyl)-phosphinoyl-pentane (dapa-2-5) as a topical agent” (priority 2013, published 2015)

How the values were obtained:
[1] = test system: throat; assay: Cold water test after ODT-A (cold discomfort); type: in vivo, human; design: key: If the subject felt “normal coolness” in the throat, the value was “0”; if the water felt “excessively cold” on the throat, it was rated as “+”; if there was “aching cold/discomfort” on the throat, the ranking was “++”; conditions: ODT-A on the tongue, ice water drunk 10 min later
Protocol: After application of ODT-A there were sensations associated with heat abstraction of various intensity and duration. Of particular note was the sensation of “icy or painful” cold was felt with some compounds, but the effect was variable. To isolate this sensation more precisely and reduce variability, ODT-A was placed on the tongue and 10 min later the subject was instructed to drink a mouthful of water previously equilibrated with ice chips. If the subject felt “normal coolness” in the throat, the value was “0”; if the water felt “excessively cold” on the throat, it was rated as “+”; and if there was “aching cold/discomfort” on the throat, the ranking was “++”. The term “cold discomfort” was applied compounds that produced “++”, and this phenomenon could now be reliably defined and identified with the cold water test.

[2] = test system: oropharynx; assay: Chili-pepper sauce irritation test; type: in vivo, human; design: key: If there was no suppression of the irritant/tickling sensations of the sauce, the value was “0”; if there was some suppression, the value was “+”; if there was complete suppression, then the value was “++.”; conditions: ODT, sauce applied 30 min later; 6 to 8 trials per compound
Excerpt: The “pain” component of inflammation includes irritation, itch, and discomfort and suppression of these endpoints is termed “anti-nociceptive”. To determine if a compound has anti-nociceptive activity, the Inventor has devised a modified capsaicin challenge method to evoke discomfort in the oropharyngx: the chili-pepper sauce irritation test. Chili-pepper sauce placed onto the posterior dorsal surface of the tongue evokes a tickling/irritant sensations in the oropharynx. The sensations associated with the chili pepper sauce are located in the back of the mouth and are clearly recognized and associated with irritation and a desire to clear the throat. In the chili-pepper sauce irritation test, the test compound is delivered using an ODT, as in Study 3, and 30 min later 0.2 to 0.25 mL of the sauce was applied onto the posterior dorsal surface of the tongue (with a syringe or a plastic stick). The chili pepper sauce used here is called Yank Sing® Chili Pepper Sauce (YS Gourmet Productions, Inc., PO Box 26189, San Francisco, Calif. 94126) and is a well-known condiment for use with dim sum (Chinese tea lunch). If there was no suppression of the irritant/tickling sensations of the sauce, the value was “0”; if there was some suppression, the value was “+”; and if there was complete suppression, then the value was “++.” For compounds that gave a ++ score, the irritative signals of the chili-pepper sauce are completely absent, yet the salty taste from the soy sauce of the condiment can still be readily tasted. A “++” result indicated suppression of the irritant effects of chili-pepper sauce. Numerical results are from 6 to 8 trials per compound.

[3] = target: T1, cloned hTRPM8 channel (encoded by the human TRPM8 gene, expressed in CHO cells) (Homo sapiens, UniProt Q7Z2W7); assay: TRPM8 agonist FLIPR Fluo-8 calcium assay; type: cell-based; conditions: for TRPM8 Relative Potency: DAPA-1-7 = 1
T1 construct: host or cells: CHO cells, stably transfected
Protocol: The in vitro effects of test compounds were evaluated on cloned hTRPM8 channel (encoded by the human TRPM8 gene, expressed in CHO cells) using a Fluo-8 calcium kit and a Fluorescence Imaging Plate Reader (FLIPR^TETRA™) instrument.
Test compounds and positive control solutions were prepared by diluting stock solutions in a HEPES-buffered physiological saline (HBPS) solution. The test compound and control formulations were loaded in polypropylene or glass-lined 384-well plates, and placed into the FLIPR instrument (Molecular Devices Corporation, Union City, Calif., USA). The test compounds were evaluated at 4 or 8 concentrations with n=4 replicates per determination. […] The test cells were Chinese Hamster Ovary (CHO) cells stably transfected with human TRPM8 cDNAs.
For the FLIPR^TETRA™ assay, cells were plated in 384-well black wall, flat clear-bottom microtiter plates (Type: BD Biocoat Poly-D-Lysine Multiwell Cell Culture Plate) at approximately 30,000 cells per well. Cells were incubated at 37° C. overnight to reach a near confluent monolayer appropriate for use in a fluorescence assay. The test procedure was to remove the growth media and to add 40 μL of HBPS containing Fluo-8 for 30 min at 37° C. 10 μL of test compound, vehicle, or control solutions in HBPS were added to each well and read for 4 min.
Concentration-response data were analyzed via the FLIPR Control software that is supplied with the FLIPR System (MDS-AT) and fitted to a Hill equation of the following form: […]
where: “Base” is the response at low concentrations of test compound; “Max” is the maximum response at high concentrations; “xhalf” is the EC50, the concentration of test compound producing half-maximal activation; and “rate” is the Hill coefficient. Nonlinear least squares fits were made assuming a simple one-to-one binding model.

[4] = test system: oral cavity and pharyngeal surfaces; assay: Sensory activity of ODT-A on volunteers; type: in vivo, human; conditions: 6 to 8 trials per compound
Protocol: ODT-A was prepared by dissolving the DAPA compound in absolute ethanol, adding a 80% mannitol-20% maltitol mixture of equal weight and then adding an equal volume of distilled water. The mixture was the stirred with a glass rod, and dispensed onto a piece of wax or parchment paper with a disposable plastic pipette. The viscous liquid drop formed was then dried under a heat source for at least 4 hr. The nominal dose of the API in ODT-A ranged from 1 to 3 mg/tablet. The dried tablets weighed on average 150 mg each and when on the dorsal surface of the tongue, rapidly dissolved completely in saliva and coated the oropharyngeal surface. These tablets were suitable for initial pilot studies, but were not uniform in size, were friable, especially in conditions of high ambient humidity, and were not readily amenable to further analytical evaluation.
Sensory Qualities of ODT on the Oral Cavity and Pharyngeal Surfaces The DAPA ODT of Study 2 were evaluated for sensory properties on volunteers. The ODT-A results [see table] are from 6 to 8 trials per compound in several experienced individuals familiar with sensory properties of “cooling agents”. The results of ODT-A will be discussed together with ODT-B and ODT-C.

T1 sequence (Q7Z2W7 whole entry): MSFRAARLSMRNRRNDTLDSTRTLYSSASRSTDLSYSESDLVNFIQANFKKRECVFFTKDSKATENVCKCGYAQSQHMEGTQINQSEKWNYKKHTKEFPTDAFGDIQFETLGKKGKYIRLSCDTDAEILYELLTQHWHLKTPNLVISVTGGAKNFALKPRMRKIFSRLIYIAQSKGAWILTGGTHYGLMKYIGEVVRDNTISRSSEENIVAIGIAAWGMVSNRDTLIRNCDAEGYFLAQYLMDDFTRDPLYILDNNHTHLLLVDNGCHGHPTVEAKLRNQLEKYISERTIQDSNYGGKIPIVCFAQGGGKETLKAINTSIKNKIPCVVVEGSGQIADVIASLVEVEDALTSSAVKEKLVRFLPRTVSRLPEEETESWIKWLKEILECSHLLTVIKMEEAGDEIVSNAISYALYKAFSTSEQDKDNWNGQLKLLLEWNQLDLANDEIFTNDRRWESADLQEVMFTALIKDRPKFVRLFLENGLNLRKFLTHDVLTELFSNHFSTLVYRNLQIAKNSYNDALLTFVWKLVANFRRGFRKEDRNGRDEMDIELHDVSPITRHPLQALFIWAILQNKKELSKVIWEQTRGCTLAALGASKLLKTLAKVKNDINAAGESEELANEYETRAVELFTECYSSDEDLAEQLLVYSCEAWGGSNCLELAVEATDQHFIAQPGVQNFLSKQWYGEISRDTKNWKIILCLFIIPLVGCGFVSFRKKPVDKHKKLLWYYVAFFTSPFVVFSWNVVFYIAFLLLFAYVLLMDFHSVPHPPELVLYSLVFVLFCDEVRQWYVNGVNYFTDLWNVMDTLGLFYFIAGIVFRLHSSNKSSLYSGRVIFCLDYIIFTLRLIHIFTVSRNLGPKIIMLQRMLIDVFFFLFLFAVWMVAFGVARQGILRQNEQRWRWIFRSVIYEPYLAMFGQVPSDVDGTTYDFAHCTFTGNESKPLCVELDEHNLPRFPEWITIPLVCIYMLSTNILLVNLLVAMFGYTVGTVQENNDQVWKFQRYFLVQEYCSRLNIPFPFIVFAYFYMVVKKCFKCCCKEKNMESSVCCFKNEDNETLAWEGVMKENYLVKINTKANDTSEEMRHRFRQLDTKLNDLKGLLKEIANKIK

Cold Discomfort [1]	Relative Potency to L-menthol [3]	TRPM8 Relative Potency [3]	SMILES	Chili test [2]	Duration [4]	Onset [4]	Sensory Quality [4]	rank in TRPM8 potency among the 21 compounds tested [3]
+	2.9	0.71	CCCCCCCCP(=O)(C(C)CC)C(C)CC (stereo not drawn) [DAPA-2-8, 1-Di(sec-butyl) phosphinoyl-octane]	+	27 min	1.2 min	cool	–
++	4.7	0.87	CCCCCCP(=O)(C(C)CC)C(C)CC (stereo not drawn) [DAPA-2-6, 1-Di(sec-butyl) phosphinoyl-hexane]	++	18 min	0.7 min	cool/cold	–

Continued, molecule first:

SMILES	Cold Discomfort [1]	Relative Potency to L-menthol [3]	TRPM8 Relative Potency [3]	Chili test [2]	Duration [4]	Onset [4]	Sensory Quality [4]	rank in TRPM8 potency among the 21 compounds tested [3]
CCCCCCCP(=O)(C(C)C)C(C)C [DAPA-1-7, 1-Di(isopropyl)-phosphinoyl-heptane]	+	5.4	1	++	16 min	0.6 min	cool/cold	–
CCCCCCCP(=O)(C(C)CC)C(C)CC (stereo not drawn) [DAPA-2-7, 1-Di(sec-butyl) phosphinoyl-heptane]	++	3.4	0.64	++	21 min	0.7 min	cool/cold	–
CCCCCP(=O)(C(C)CC)C(C)CC (stereo not drawn) [DAPA-2-5, 1-Di(sec-butyl)-phosphinoyl-pentane]	0	2.2	0.41	++	12 min	0.1 min	dynamic cool	12
CCCCCCP(=O)(C(C)C)C(C)C [DAPA-1-6, 1-Di(isopropyl)-phosphinoyl-hexane]	++	1.6	–	++	16 min	0.6 min	cool/cold	–
